# Values of other authors in patent US20080226719A1, “Combination of Rosiglitazone and Donepezil for Improvement of Cognitive Function” (priority 2005, published 2008).
# Where two headings read alike, the source gives them in different places.
# System: individuals with mild cognitive impairment
# Details: cited from earlier work; for rate at which patients developed AD: mild cognitive impairment
structure (smiles),measurement,setting,value
COc1cc2c(cc1OC)C(=O)C(CC1CCN(Cc3ccccc3)CC1)C2 (stereo not drawn) [donepezil],risk of progressing to AD compared to placebo,"carriers of one or two copies of an APOE4 allele, after three years",reduced risk of progressing to AD
same,rate at which patients developed AD,"at three years, versus placebo",no separation between groups
same,rate at which patients developed AD,first twelve months of administration,reduce the rate at which patients developed AD
